Data from patent publication US10899714B2, “6-aminoisoquinoline compounds” (Aerie Pharmaceuticals, Inc., priority 2007, dated 2021).
Counter-ions that a name gives are not always drawn.

How the values were obtained:
Format in all cases: in vivo
[1] = Topical ocular composition (Example 212), allergic symptoms; settings: 0.50 wt % topical composition
[2] = Topical ocular composition (Example 212), dry eye syndrome; settings: 0.50 wt % topical composition, drop twice per day
[3] = system: patient suffering from glaucoma; experiment: Topical ocular composition (Example 212) lowering intraocular pressure; settings: 0.50 wt % topical composition
Procedure: Examples of such assays are described in the following reference, incorporated herein by reference: C. Liljebris, G. Selen. B. Resul, J. Sternschantz, and U. Hacksell, “Derivatives of 17-Phenyl-18, 19, 20-trinorprostaglandin F2α Isopropyl Ester: Potential Anti-glaucoma Agents”, Journal of Medicinal Chemistry, Vol. 38 (2) 1995, pp. 289-304.
Topical pharmaceutical compositions for lowering intraocular pressure are prepared by conventional methods and formulated as follows: […]
A compound according to this invention is used as the 6-aminoisoquinoline derivative. […]

[4] = Topical ocular composition (Example 212), neuroprotective effect; settings: 0.50 wt % topical composition, drop 4 times per day
[5] = Topical ocular composition (Example 212), hyperemia, redness and ocular irritation; settings: 0.50 wt % topical composition, drop as needed

**Q.** For `O=C(Nc1ccc2cnccc2c1)OCc1ccccc1` [Example E87, benzylisoquinolin-6-ylcarbamate], which allergic symptoms ([1]; drop twice per day) is on record?
**A.** Its allergic symptoms is “substantially decreases allergic symptoms”.

**Q.** What about the dry eye syndrome [2] of the same molecule?
**A.** Its dry eye syndrome is “relieves dry eye syndrome”.

**Q.** With `N[C@@H](CSCC(C(=O)c1ccc(/C=C/C(=O)Nc2ccc3cnccc3c2)cc1)c1ccccc1)C(=O)O` (stereo partly drawn) [Example E207, (2R)-2-amino-3-(3-(4-((E)-3-(isoquinolin-6-ylamino)-3-oxoprop-1-enyl)phenyl)-3-oxo-2-phenylpropylthio)propanoic acid] as the molecule, how does the intraocular pressure ([3]; drop 4 times per day) read?
**A.** The intraocular pressure was “substantially decreases intraocular pressure”.

**Q.** What about the neuroprotective agent [4] of the same molecule?
**A.** Its neuroprotective agent is “serves as a neuroprotective agent”.

**Q.** For `O=C(CN1CCOCC1)Nc1ccc2cnccc2c1` [Example E105, N-(isoquinolin-6-yl)-2-morpholinoacetamide], which “hyperemia, redness and ocular irritation” value [5] is on record?
**A.** The value was “substantially decreases hyperemia, redness and ocular irritation”.

**Q.** With `O=C(CCl)Nc1ccc2cnccc2c1` [Example E1, 2-chloro-N-(isoquinolin-6-yl) acetamide] as the molecule, how does the allergic symptoms ([1]; drop twice per day) read?
**A.** Its allergic symptoms is “substantially decreases allergic symptoms”.

**Q.** And the dry eye syndrome [2]?
**A.** Its dry eye syndrome is “relieves dry eye syndrome”.

**Q.** With `O=C(CNCc1ccccc1)Nc1ccc2cnccc2c1` [Example E58, 2-(benzylamino)-N-(isoquinolin-6-yl)acetamide] as the molecule, how does the intraocular pressure ([3]; drop twice per day) read?
**A.** Its intraocular pressure is “substantially decreases intraocular pressure”.

**Q.** For `O=C(NCc1ccccc1)Nc1ccc2cnccc2c1` [Example E88, 1-benzyl-3-(isoquinolin-6-yl)urea], which allergic symptoms ([1]; drop as needed) is on record?
**A.** The allergic symptoms was “substantially decreases allergic symptoms”.

**Q.** With `CNC(=O)c1cccc(NCC(=O)Nc2ccc3cnccc3c2Cl)c1` [Example E119b, 3-(2-(5-chloroisoquinolin-6-ylamino)-2-oxoethylamino)-N-methyl benzamide] as the molecule, how does the intraocular pressure ([3]; drop twice a day or as needed) read?
**A.** Its intraocular pressure is “substantially decreases intraocular pressure”.

**Q.** For `CNC(=O)c1cccc(NCS(=O)(=O)Nc2ccc3cnccc3c2)c1` [Example E136, 3-((N-isoquinolin-6-ylsulfamoyl)methylamino)-N-methylbenzamide], which intraocular pressure ([3]; drop twice per day) is on record?
**A.** The intraocular pressure was “substantially decreases intraocular pressure”.

**Q.** For `O=C(Nc1ccncc1)c1ccc(C2CC2C(=O)Nc2ccc3cnccc3c2)cc1` (stereo not shown) [Example E118, 4-(2-(isoquinolin-6-ylcarbamoyl)cyclopropyl)-N-(pyridin-4-yl)benzamide], which intraocular pressure ([3]; drop twice a day or as needed) is on record?
**A.** The intraocular pressure was “substantially decreases intraocular pressure”.

**Q.** Which “hyperemia, redness and ocular irritation” value [5] does the source give for `NCC(=O)Nc1ccc2cnccc2c1` [Example E40, 2-amino-N-isoquinoline-6-yl-acetamide dihydrochloride] here?
**A.** The value was “substantially decreases hyperemia, redness and ocular irritation”.
